Reference: patent US20130011393A1, “BAD PATHWAY GENE SIGNATURE” (priority 2010, published 2013)

Tests used:
Format in all cases: cell-based, human
[1] = test system: OVCA cell lines (A2780S, A2780CP, A2008, C13); assay: Cisplatin-resistance by CellTiter-96 MTS proliferation assay in serially cisplatin-treated OVCA cell lines; details: after in vitro cisplatin-treatment/expansion cycles versus cells prior to serial cisplatin treatment
Description: Acquisition and culture conditions for the expansion of OVCA cells lines (T8, OVCAR5, OV2008, IGROV1, C13, A2780S, A2780CP, and A2008) were reported previouslyl^10. Cells were subjected to sequential treatment with increasing doses of cis-diammine-dichloroplatinum (cisplatin), using three dosing schedules resulting in […] treatment/expansion cycles. Treatment schedules A, B, and C included three treatments with 1, 2, and 3 μg/mL cisplatin, respectively, followed by three treatments with 3, 4, and 5 μg/mL, respectively. Each cisplatin treatment was followed by a cell recovery/expansion phase. Both cisplatin-resistance and genome-wide expression changes were measured serially in each cell line at baseline and after 3 and 6 cisplatin-treatment/expansion cycles. Cisplatin-resistance was quantified using CellTiter-96 MTS proliferation assays (Fisher Scientific) and analyzed genome-wide expression using Affymetrix Human U133 Plus 2.0 GeneChips as previously described^10,11 (Gene Expression Omnibus (GEO) accession number GSE23553).
Many of the BAD-pathway genes found to be associated with evolution of in vitro cisplatin-resistance are known to influence BAD phosphorylation (FIG. 12). The inventors therefore tested the hypothesis that BAD-phosphorylation status is associated with OVCA cisplatin-resistance. […]

A2780S cells = assay: Apoptotic nuclei after cisplatin following siRNA depletion of PKA or PP2C/PPM1A; details: 1 μM cisplatin
Description: (§1) In FIGS. 14A and 14B, OVCA cell lines A2780S and A2780CP, respectively, were transfected with Flag vectors expressing wild-type BAD (WT) or BAD harboring serine (S) to alanine point mutations in serine-112, -136, or -155 (S112A, S136A, S155A). These S to A phosphorylation site mutations prevent phosphorylation of the BAD protein. Transfected cells were treated with vehicle or 1 μM (A2780S) or 10 μM (A2780CP) cisplatin for 48 hours and evaluated for the presence of apoptotic nuclei. FIG. 14C is a Western blot showing depletion of PP2C and PKA by siRNA. Controls included a non-targeting siRNA (NT). GAPDH was used as a loading control. […] Error bars indicate standard error of the mean.
(§2) RNA duplexes for PP2C/PPM1A (s10909 from ABI), cAMP-dependent protein kinase (PKA; 6406 from Cell Signaling), and vectors containing mutated BAD (pFlag-600, a kind gift from Dr. Hong Gang Wang, MCC) were transfected using the Nucleofector transfection kit, with non-targeting Silencer negative control #2 siRNA (ABI), according to manufacturer's protocols (Amaxa).
(§3) Morphologic assessment of condensed chromatin and fragmented DNA quantified percent apoptotic nuclei. Cells were fixed in 4% paraformaldehyde, and nuclei were stained with bis-benzimide trihydrochloride (0.5 μg/ml; Molecular Probes) and quantified using fluorescence microscopyl^5.

A2780S and A2780CP cells = assay: Apoptotic nuclei after cisplatin in cells transfected with BAD phosphorylation-site mutants; details: 1 μM (A2780S) or 10 μM (A2780CP) cisplatin, 48 hours
Description: as §1, §2, §3

SMILES: N.N.[Cl][Pt][Cl] [cisplatin, cis-diammine-dichloroplatinum]
- cisplatin EC50 [1]: higher
- cisplatin-induced apoptosis (percent apoptotic nuclei) (A2780S cells; siRNA depletion of PKA versus non-targeting control siRNA): increased
- cisplatin-induced apoptosis (percent apoptotic nuclei) (A2780S cells; siRNA depletion of PP2C/PPM1A): decreased
- cisplatin sensitivity (apoptotic nuclei) (A2780S and A2780CP cells; cells transfected with BAD[112A]): no effect
- cisplatin-induced apoptosis (apoptotic nuclei) (A2780S and A2780CP cells; cells transfected with BAD[S136A], BAD[S155A] versus wild-type BAD): increased
